Laboratory results taken from patent publication US20260308145A1, “CDK2 INHIBITORS AND METHODS OF USING SAME” (Shenzhen lonova Life Science Co., Ltd., priority 2023, published 2026).

Key:
Type in all cases: biochemical
CDK1/cyclinB1 = molecular target: T1, CDK1/cyclinB1 (Homo sapiens, UniProt P06493); test: Cyclin-dependent kinase activity assay (continuous ATP coupling assay), CDK1/cyclinB1; details: CDK1/cyclinB1 10 nM, ATP 200 μM, Histone1 copeptide 100 μM, 15 min preincubation, pH 7.5, 1% DMSO
T1 construct: purchased Carna Biosciences 04-102
T1 sequence (P06493 whole entry): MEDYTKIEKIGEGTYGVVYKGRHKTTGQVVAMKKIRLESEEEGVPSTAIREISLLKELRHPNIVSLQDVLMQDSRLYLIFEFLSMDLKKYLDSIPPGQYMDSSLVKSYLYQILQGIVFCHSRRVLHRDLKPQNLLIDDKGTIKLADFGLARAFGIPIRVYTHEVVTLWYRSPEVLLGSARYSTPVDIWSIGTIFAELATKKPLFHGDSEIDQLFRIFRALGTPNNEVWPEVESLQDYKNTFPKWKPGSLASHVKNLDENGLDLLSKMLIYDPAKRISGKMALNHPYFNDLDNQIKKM
T1 sequence (P14635 whole entry partner): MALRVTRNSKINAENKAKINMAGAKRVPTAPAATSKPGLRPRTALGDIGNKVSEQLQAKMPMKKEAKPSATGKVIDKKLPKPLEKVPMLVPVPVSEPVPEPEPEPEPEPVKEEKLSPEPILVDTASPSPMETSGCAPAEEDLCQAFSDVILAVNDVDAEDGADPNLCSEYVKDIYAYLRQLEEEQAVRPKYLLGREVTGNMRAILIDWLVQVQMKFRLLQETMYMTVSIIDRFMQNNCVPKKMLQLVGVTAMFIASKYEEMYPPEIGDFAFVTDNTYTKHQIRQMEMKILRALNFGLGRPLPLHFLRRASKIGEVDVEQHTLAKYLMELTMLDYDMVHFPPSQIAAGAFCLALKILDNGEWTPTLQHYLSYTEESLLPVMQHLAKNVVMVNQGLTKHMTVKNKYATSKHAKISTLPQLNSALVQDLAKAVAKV
Description: (§1) Cyclin-dependent kinase activity assay was measured by continuous ATP coupling assay in which ADP generated by kinase catalyzed phosphorylation was converted back to ATP by consuming phosphoenolpyruvate (PEP) and NADH catalyzed by pyruvate kinase/lactate dehydrogenase (PK/LDH). The assay compositions (see, Table 1) consist of one of the kinases, including CDK1/cyclinB1, CDK2/cyclinE1, CDK4/cyclinD3, and CDK6/cyclinD3 at the designated concentration, ATP at the corresponding Km of the kinase, copeptide and the ATP coupling system of PEP, NADH and PK/LDH. The assay was conducted in a reaction buffer of 20 mM Tris (pH 7.5) with 50 mM NaCl, 0.5 mM DTT and 0.04% BSA, and results were monitored continuously by fluorescence decrease of NADH with excitation at 340 nm and emission at 460 nm. Linear regression of the resulting reaction time traces gave reaction velocities.
(§2) For inhibition assay, compounds were first serial diluted in a 1:3 ratio from 10 μM to 0.05 nM using 10× reaction buffer. One of the CDK kinase was then introduced to compounds solution and incubated for 15 min. Finally, the compositions of ATP coupling system were introduced to the resulting solution to initiate the reaction. The final reaction mixture was in 1× reaction assay buffer with 1% DMSO. The half-maximal inhibition concentrations (IC50) for compounds were determined by fitting the plots of reaction velocity against compound concentration with 4-variable IC50 equation. The inhibition constants (Ki) were determined by fitting the same plots with quadratic/Morrison equation. Data were analyzed using commercially available software Graphpad Prism.
(§3) Exemplary results are presented as calculated IC50 values. • A: IC50≤10 nM • B: IC50>10 nM and IC50<100 nM • C: IC50≥100 nM

CDK2/cyclinE1 = molecular target: T2, CDK2/cyclinE1 (Homo sapiens, UniProt P24941); test: Cyclin-dependent kinase activity assay (continuous ATP coupling assay), CDK2/cyclinE1; details: CDK2/cyclinE1 5 nM, ATP 300 μM, Rb copeptide 100 μM, 15 min preincubation, pH 7.5, 1% DMSO
T2 construct: purchased Carna Biosciences 04-165
Description: as §1, §2, §3

CDK4/cyclinD3 = molecular target: T3, CDK4/cyclinD3 (Homo sapiens, UniProt P11802); test: Cyclin-dependent kinase activity assay (continuous ATP coupling assay), CDK4/cyclinD3; details: CDK4/cyclinD3 60 nM, ATP 500 μM, Rb copeptide 500 μM, 15 min preincubation, pH 7.5, 1% DMSO
T3 construct: purchased Carna Biosciences 04-105
T3 sequence (P11802 whole entry): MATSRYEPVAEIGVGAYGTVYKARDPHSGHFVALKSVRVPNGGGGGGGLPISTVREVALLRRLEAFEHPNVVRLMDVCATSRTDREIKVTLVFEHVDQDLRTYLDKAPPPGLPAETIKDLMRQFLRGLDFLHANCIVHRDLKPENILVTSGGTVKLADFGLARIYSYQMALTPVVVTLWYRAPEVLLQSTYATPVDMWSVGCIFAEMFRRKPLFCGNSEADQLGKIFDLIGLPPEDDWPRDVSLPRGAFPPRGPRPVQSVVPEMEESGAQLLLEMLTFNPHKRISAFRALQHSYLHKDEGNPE
T3 sequence (P30281 whole entry partner): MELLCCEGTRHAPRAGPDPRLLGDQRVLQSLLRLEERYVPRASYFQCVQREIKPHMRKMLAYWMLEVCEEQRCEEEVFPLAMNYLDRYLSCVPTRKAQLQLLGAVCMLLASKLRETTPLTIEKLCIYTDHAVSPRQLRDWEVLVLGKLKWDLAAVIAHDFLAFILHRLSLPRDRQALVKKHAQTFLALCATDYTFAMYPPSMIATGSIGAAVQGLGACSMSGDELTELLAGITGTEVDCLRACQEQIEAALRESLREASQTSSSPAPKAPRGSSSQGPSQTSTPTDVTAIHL
Description: as §1, §2, §3

CDK6/cyclinD3 = molecular target: T4, CDK6/cyclinD3 (Homo sapiens, UniProt Q00534); test: Cyclin-dependent kinase activity assay (continuous ATP coupling assay), CDK6/cyclinD3; details: CDK6/cyclinD3 25 nM, ATP 500 μM, Rb copeptide 500 μM, 15 min preincubation, pH 7.5, 1% DMSO
T4 construct: purchased Carna Biosciences 04-107
T4 sequence (Q00534 whole entry): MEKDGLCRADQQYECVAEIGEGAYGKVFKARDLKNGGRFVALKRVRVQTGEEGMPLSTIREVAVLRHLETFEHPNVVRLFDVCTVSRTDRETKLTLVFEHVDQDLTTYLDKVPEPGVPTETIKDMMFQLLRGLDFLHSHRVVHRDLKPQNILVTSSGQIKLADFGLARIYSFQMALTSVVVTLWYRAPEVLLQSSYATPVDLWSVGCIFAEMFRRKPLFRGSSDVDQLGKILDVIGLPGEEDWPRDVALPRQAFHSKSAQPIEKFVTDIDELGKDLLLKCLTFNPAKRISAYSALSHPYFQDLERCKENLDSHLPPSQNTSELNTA
T4 sequence (P30281 whole entry partner): as the sequence (P30281 whole entry partner) above
Description: as §1, §2, §3

Compound	IC50 (CDK1/cyclinB1)	IC50 (CDK2/cyclinE1)	IC50 (CDK4/cyclinD3)	IC50 (CDK6/cyclinD3)
O=S(=O)(NC1CC1)c1ccc(Nc2ncc(C(F)(F)F)c(-n3cccn3)n2)cc1 [Example 30]	≥ 0.1 µM	0.01 to 0.1 µM	≥ 0.1 µM	≥ 0.1 µM
CCS(=O)(=O)N1C2CCC1CC(Nc1ncc(C(F)(F)F)c(-n3cccn3)n1)C2 (stereo not shown) [Example 31]	≥ 0.1 µM	≥ 0.1 µM	≥ 0.1 µM	≥ 0.1 µM
CCS(=O)(=O)N1CC2(CC(Nc3ncc(C(F)(F)F)c(-n4cccn4)n3)C2)C1 [Example 32, 2-(ethyldioxo-λ6-sulfanyl)-6-{[4-(pyrazol-1-yl)-5-(trifluoromethyl)pyrimidin-2-yl]amino}-2-azaspiro[3.3]heptane]	≥ 0.1 µM	≥ 0.1 µM	≥ 0.1 µM	≥ 0.1 µM
CN1CCC(N2CCN(c3ccc(Nc4ncc(C(F)(F)F)c(-n5cccn5)n4)cc3)CC2)CC1 [Example 33]	≥ 0.1 µM	≥ 0.1 µM	≥ 0.1 µM	≥ 0.1 µM
FC(F)(F)c1cnc(Nc2ccc(S(F)(F)(F)(F)F)cc2)nc1-n1cccn1 [Example 34]	≥ 0.1 µM	≥ 0.1 µM	≥ 0.1 µM	≥ 0.1 µM
CN1CCC(NS(=O)(=O)c2ccc(Nc3ncc(C(F)(F)F)c(-n4cccn4)n3)cc2)CC1 [Example 35]	≥ 0.1 µM	≤ 0.01 µM	0.01 to 0.1 µM	≥ 0.1 µM
O=S(=O)(NCCO)c1ccc(Nc2ncc(C(F)(F)F)c(-n3cccn3)n2)cc1 [Example 36, 4-((4-(1H-pyrazol-1-yl)-5-(trifluoromethyl)pyrimidin-2-yl)amino)-N-(2-hydroxyethyl) benzene sulfonamide]	0.01 to 0.1 µM	≤ 0.01 µM	≥ 0.1 µM	≥ 0.1 µM
O=S(=O)(c1ccc(Nc2ncc(C(F)(F)F)c(-n3cccn3)n2)cc1)N1CCNCC1 [Example 37]	≥ 0.1 µM	≤ 0.01 µM	0.01 to 0.1 µM	0.01 to 0.1 µM
CN1CCN(S(=O)(=O)c2ccc(Nc3ncc(C(F)(F)F)c(-n4cccn4)n3)cc2)CC1 [Example 38]	≥ 0.1 µM	0.01 to 0.1 µM	≥ 0.1 µM	≥ 0.1 µM
O=C1NCc2cc(Nc3ncc(C(F)(F)F)c(-n4cccn4)n3)ccc21 [Example 39]	≥ 0.1 µM	≥ 0.1 µM	≥ 0.1 µM	≥ 0.1 µM
O=S(=O)(NC1COC1)c1ccc(Nc2ncc(C(F)(F)F)c(-n3cccn3)n2)cc1 [Example 40]	≥ 0.1 µM	≤ 0.01 µM	≥ 0.1 µM	≥ 0.1 µM
O=S(=O)(NC1CC(F)(F)C1)c1ccc(Nc2ncc(C(F)(F)F)c(-n3cccn3)n2)cc1 [Example 41]	≥ 0.1 µM	0.01 to 0.1 µM	≥ 0.1 µM	≥ 0.1 µM
O=S1(=O)NCc2cc(Nc3ncc(C(F)(F)F)c(-n4cccn4)n3)ccc21 [Example 42, 1,1-dioxo-N-[4-pyrazol-1-yl-5-(trifluoromethyl)pyrimidin-2-yl]-2,3-dihydro-1,2-benzothiazol-5-amine]	≥ 0.1 µM	≥ 0.1 µM	≥ 0.1 µM	≥ 0.1 µM
CN(C)CCNS(=O)(=O)c1ccc(Nc2ncc(C(F)(F)F)c(-n3cccn3)n2)cc1 [Example 43]	0.01 to 0.1 µM	≤ 0.01 µM	0.01 to 0.1 µM	0.01 to 0.1 µM
CNS(=O)(=O)c1ccc(Nc2ncc(C(F)(F)F)c(-n3cc(Br)cn3)n2)cc1 [Example 44]	≥ 0.1 µM	0.01 to 0.1 µM	≥ 0.1 µM	≥ 0.1 µM
CNS(=O)(=O)c1ccc(Nc2ncc(C(F)(F)F)c(-n3cc(F)cn3)n2)cc1 [Example 45]	≥ 0.1 µM	0.01 to 0.1 µM	≥ 0.1 µM	≥ 0.1 µM
CNS(=O)(=O)c1ccc(Nc2ncc(C(F)(F)F)c(-n3cc(C)cn3)n2)cc1 [Example 46]	≥ 0.1 µM	≤ 0.01 µM	0.01 to 0.1 µM	≥ 0.1 µM
CNS(=O)(=O)c1ccc(Nc2ncc(C(F)(F)F)c(-n3cc(C(F)(F)F)cn3)n2)cc1 [Example 47]	0.01 to 0.1 µM	0.01 to 0.1 µM	≥ 0.1 µM	≥ 0.1 µM
CNS(=O)(=O)c1ccc(Nc2ncc(C(F)(F)F)c(-n3cc(CC(C)C)cn3)n2)cc1 [Example 48]	≥ 0.1 µM	0.01 to 0.1 µM	≤ 0.01 µM	0.01 to 0.1 µM
